Reference: article PMC12865225 (Clinical and Translational Science, 2026)

Legend:
[1] = target: T1, OATP2B1 (Homo sapiens, UniProt O94956); test: OATP2B1 inhibition, rosuvastatin uptake into transporter-expressing HEK293 cells; assay type: cell-based; settings: for Calculated R-value OATP2B1 (hepatic): R = 1 + (I in,max,u/IC50), FDA cut-off ≥ 1.1; for Calculated R-value OATP2B1 (intestinal): R = I gut/IC50, FDA cut-off ≥ 10
T1 construct: expressed in transfected cells; host or cells: HEK293 (recombinant baculovirus-mediated transduction)
T1 sequence (O94956 1-709): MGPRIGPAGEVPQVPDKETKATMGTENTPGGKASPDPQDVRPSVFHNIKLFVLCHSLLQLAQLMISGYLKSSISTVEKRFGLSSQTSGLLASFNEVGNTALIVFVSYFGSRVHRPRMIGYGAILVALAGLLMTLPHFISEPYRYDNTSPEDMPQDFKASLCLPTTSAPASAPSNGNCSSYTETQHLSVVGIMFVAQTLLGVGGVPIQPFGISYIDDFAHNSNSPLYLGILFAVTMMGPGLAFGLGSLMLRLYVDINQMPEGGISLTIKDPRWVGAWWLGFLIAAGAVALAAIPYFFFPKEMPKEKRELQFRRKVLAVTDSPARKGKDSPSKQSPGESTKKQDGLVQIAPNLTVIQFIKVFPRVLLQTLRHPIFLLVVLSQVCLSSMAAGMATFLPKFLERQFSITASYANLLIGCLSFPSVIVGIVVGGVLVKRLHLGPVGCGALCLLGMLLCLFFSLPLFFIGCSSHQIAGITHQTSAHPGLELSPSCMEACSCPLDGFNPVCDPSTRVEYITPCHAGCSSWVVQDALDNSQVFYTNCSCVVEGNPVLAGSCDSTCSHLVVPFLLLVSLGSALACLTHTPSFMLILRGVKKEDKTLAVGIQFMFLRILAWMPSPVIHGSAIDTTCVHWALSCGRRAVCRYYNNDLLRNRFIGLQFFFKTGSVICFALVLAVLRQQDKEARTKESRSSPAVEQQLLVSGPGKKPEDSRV
Method: (§1) The human transporters OATP1B1, OATP1B3, OATP2B1, and OAT1‐OAT4 and a negative control protein (enhanced yellow fluorescent protein, eYFP) were transiently expressed in human embryonic kidney 293 (HEK293) cells by recombinant baculovirus‐mediated transduction. Baculoviruses carrying human genes for the transporters were prepared as reported previously. HEK293 cells were cultured in DMEM containing 10% fetal bovine serum at 37°C and 5% CO2 and passaged two to three times per week. For the transport studies, 0.05 × 10^6 cells for 48‐well plates (OATPs) or 0.06 × 10^6 cells for 24‐well plates (OATs) were seeded onto cell‐culture treated well plates coated with poly‐D‐lysine. After 1 day, cells were transduced to produce recombinant proteins by changing media to DMEM containing 30 μL (48‐well plates) or 60 μL (24‐well plates) of recombinant baculovirus and 3 mM (OATs) or 5 mM (OATPs) sodium butyrate in a total media volume of 500 μL. The cells were cultured for a further 2 days before the transport assays.
(§2) For the transport studies, media were removed and cells were washed once with warm transport uptake buffer (TP‐buffer—pH 7.4 HBSS with 25 mM HEPES and 4 mM sodium bicarbonate). Each experiment included triplicate (OATP) or duplicate (OAT) samples for every test condition. The uptake was started by removing liquid from wells and applying warm TP‐buffer (200 μL for 24‐well plates or 125 μL for 48‐well plates) containing a test compound to cells. Transport assays were terminated after a pre‐specified incubation time (reported in figure legends) by removing substrate solution and washing cells three times with cold TP‐buffer (300 μL for 48‐well plates and 400 μL for 24‐well plates). For the liquid chromatography mass spectrometry (LC–MS) analysis, compounds were extracted from cells with 125 μL (48‐well plates) or 250 μL (24‐well plates) of an ultrapure‐water solution containing 75% methanol and 0.1% formic acid, shaking at 250 RPM for 30 min. […] Samples were transferred to well plates, centrifuged at 3000 g for 30 min, and transferred to a new well plate for the analysis.
(§3) In the OATP inhibition assays, inhibitors in warm TP‐buffer were directly applied to cells after media removal, followed by a 30‐min preincubation step in the presence of inhibitors. […] OAT1 and OAT3 cells were lysed with 200 μL of 1 M sodium hydroxide for 10 min, and 150 μL of these samples were transferred to a black well plate for fluorescein quantification. […]
(§4) For the inhibition data analysis, the average of measured concentrations in the control cells was subtracted from the average of measured concentrations in transporter‐expressing cells for each inhibitor concentration and then normalized to the vehicle sample that represents 100% transport activity. […]

[2] = test system: T2, OAT2; test: OAT2 inhibition, methotrexate uptake into HEK293 cells; assay type: cell-based, human; settings: 200 μM inhibitor, 34 nM methotrexate
T2 construct: expressed in transfected cells; host or cells: HEK293 (recombinant baculovirus-mediated transduction)
Method: as §1, with “After 1 day, cells were transduced to produce recombinant proteins by changing media to DMEM containing 30 μL (48‐well plates) or 60 μL (24‐well plates) of recombinant baculovirus and 3 mM (OATs) or 5 mM (OATPs) sodium butyrate in a total media volume of 500 μL. The cells were cultured for a further 2 days before the transport assays.” left out
as §3, §4

[3] = target: T1, OATP2B1; test: Uptake transport assay in OATP2B1-expressing HEK293 cells; assay type: cell-based; settings: for transport by OATP2B1: 2 and 50 μM, 10 min; for Vmax (pmol/106 cells/min) OATP2B1: uptake, 2 min
Method: as §1, §2
Equation (2) (the Michaelis–Menten equation) was fit to the transport kinetic assay data. […] (2) Uptake=Vmax×S/Km+S

[4] = test system: T3, OAT1; test: Uptake transport assay in OAT1-expressing HEK293 cells; assay type: cell-based, human; settings: 2 and 50 μM, 10 min
T3 construct: expressed in transfected cells; host or cells: HEK293 (recombinant baculovirus-mediated transduction)
Method: as §1
For the transport studies, media were removed and cells were washed once with warm transport uptake buffer (TP‐buffer—pH 7.4 HBSS with 25 mM HEPES and 4 mM sodium bicarbonate). Each experiment included triplicate (OATP) or duplicate (OAT) samples for every test condition. […]

Row | Structure (SMILES) | Calculated R-value OATP2B1 (hepatic) [1] | Calculated R-value OATP2B1 (intestinal) [1] | inhibition of OAT2-mediated transport of methotrexate [2] | transport by OATP2B1 [3] | Vmax (pmol/106 cells/min) OATP2B1 [3] [pmol/106 cells/min] | transport by OAT1 [4]
1 | Cc1onc(-c2c(Cl)cccc2Cl)c1C(=O)N[C@@H]1C(=O)N2[C@@H]1SC(C)(C)[C@@H]2C(=O)O [Dicloxacillin] | 1.2 | 240 | neither compound substantially inhibited | transported | 61.5 | transported
2 | Cc1onc(-c2c(F)cccc2Cl)c1C(=O)N[C@@H]1C(=O)N2[C@@H]1SC(C)(C)[C@@H]2C(=O)O [Flucloxacillin] | 1.2 | 137 | neither compound substantially inhibited | transported | 74.9 | transported
